Values of other authors in patent US20050282843A1, “Therapeutic applications of 2-substituted 4-heteroarylpyrimidines” (priority 2002, published 2005).

Test system: GSK3
Settings: known CDK inhibitors; cited from earlier work

Compound: CC[C@H](CO)Nc1nc(NCc2ccccc2)c2ncn(C(C)C)c2n1 [roscovitine]
- inhibition of GSK3 (literature statement): do not inhibit GSK3
